In PMC1950744, “Transcription Termination Defective Mutants of Rho: Role of Different Functions of Rho in Releasing RNA from the Elongation Complex” (Journal of Molecular Biology, 2007):

How the values were obtained:
[1] = system: T1, Nc1ncnc2c1ncn2[C@@H]1O[C@H](COP(=O)(O)OP(=O)(O)OP(=O)(O)O)[C@@H](O)[C@H]1O; assay: ATPase assay, Pi release by TLC, Lineweaver-Burk; format: biochemical, Escherichia coli; settings: poly(C) 10 μM as cofactor, 5 nM Rho, 25 mM Tris-HCl pH 8.0, 50 mM KCl, 5 mM MgCl2, 1 mM DTT, 0.1 mg/ml BSA, 30 °C
T1 construct: full-length WT rho in pET21b (pRS96; NdeI/XhoI), C-terminal His-tag kept, expressed in E. coli BL21(DE3) (I382N in BL21SI), Ni-NTA and heparin-Sepharose; homo-hexamer; 419 residues natural length
Source text: ATPase assay, Pi release by TLC, Lineweaver-Burk on Rho

Rho [2] = molecular target: T2, Rho (Escherichia coli, UniProt P0AG30, G324D); assay: UV cross-linking of [γ-32P]ATP, SDS-PAGE, hyperbolic fit; format: binding; settings: read-out: Kd, app
T2 construct: full-length WT rho in pET21b (pRS96; NdeI/XhoI), C-terminal His-tag kept, expressed in E. coli BL21(DE3) (I382N in BL21SI), Ni-NTA and heparin-Sepharose; homo-hexamer; 419 residues natural length
T2 sequence (P0AG30 whole entry G324D): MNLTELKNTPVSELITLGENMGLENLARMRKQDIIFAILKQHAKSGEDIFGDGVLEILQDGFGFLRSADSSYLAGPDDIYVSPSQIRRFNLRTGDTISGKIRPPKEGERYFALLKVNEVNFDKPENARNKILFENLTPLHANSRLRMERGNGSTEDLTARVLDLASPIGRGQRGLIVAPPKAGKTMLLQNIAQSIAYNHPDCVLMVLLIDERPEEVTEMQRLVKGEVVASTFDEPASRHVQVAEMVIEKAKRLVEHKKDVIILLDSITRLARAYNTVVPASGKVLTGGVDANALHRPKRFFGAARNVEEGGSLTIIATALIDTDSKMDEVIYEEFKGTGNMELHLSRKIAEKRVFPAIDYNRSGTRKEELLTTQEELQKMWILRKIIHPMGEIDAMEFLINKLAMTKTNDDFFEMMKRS
Source text: (§1) UV cross-linking of [γ-32P]ATP, SDS-PAGE, hyperbolic fit on Rho

Rho [3] = molecular target: T3, Rho (Escherichia coli, UniProt P0AG30, G51V); assay: as above; format: binding; settings: read-out: Kd, app
T3 construct: full-length WT rho in pET21b (pRS96; NdeI/XhoI), C-terminal His-tag kept, expressed in E. coli BL21(DE3) (I382N in BL21SI), Ni-NTA and heparin-Sepharose; homo-hexamer; 419 residues natural length
T3 sequence (P0AG30 whole entry G51V): as the sequence (P0AG30 whole entry G324D) above, with G51V, D324G counted along it
Source text: as §1

Rho [4] = molecular target: T4, Rho (Escherichia coli, UniProt P0AG30, I382N); assay: as above; format: binding; settings: read-out: Kd, app
T4 construct: full-length WT rho in pET21b (pRS96; NdeI/XhoI), C-terminal His-tag kept, expressed in E. coli BL21(DE3) (I382N in BL21SI), Ni-NTA and heparin-Sepharose; homo-hexamer; 419 residues natural length
T4 sequence (P0AG30 whole entry I382N): as the sequence (P0AG30 whole entry G324D) above, with D324G, I382N counted along it
Source text: as §1

Rho [5] = molecular target: T5, Rho (Escherichia coli, UniProt P0AG30, N340S); assay: as above; format: binding; settings: read-out: Kd, app
T5 construct: full-length WT rho in pET21b (pRS96; NdeI/XhoI), C-terminal His-tag kept, expressed in E. coli BL21(DE3) (I382N in BL21SI), Ni-NTA and heparin-Sepharose; homo-hexamer; 419 residues natural length
T5 sequence (P0AG30 whole entry N340S): as the sequence (P0AG30 whole entry G324D) above, with D324G, N340S counted along it
Source text: as §1

Rho [6] = molecular target: T6, Rho (Escherichia coli, UniProt P0AG30, P279S); assay: as above; format: binding; settings: read-out: Kd, app
T6 construct: full-length WT rho in pET21b (pRS96; NdeI/XhoI), C-terminal His-tag kept, expressed in E. coli BL21(DE3) (I382N in BL21SI), Ni-NTA and heparin-Sepharose; homo-hexamer; 419 residues natural length
T6 sequence (P0AG30 whole entry P279S): as the sequence (P0AG30 whole entry G324D) above, with P279S, D324G counted along it
Source text: as §1

Rho [7] = molecular target: T7, Rho (Escherichia coli, UniProt P0AG30, Y274D); assay: as above; format: binding; settings: read-out: Kd, app
T7 construct: full-length WT rho in pET21b (pRS96; NdeI/XhoI), C-terminal His-tag kept, expressed in E. coli BL21(DE3) (I382N in BL21SI), Ni-NTA and heparin-Sepharose; homo-hexamer; 419 residues natural length
T7 sequence (P0AG30 whole entry Y274D): as the sequence (P0AG30 whole entry G324D) above, with Y274D, D324G counted along it
Source text: as §1

Row | Molecule | Km [1] [µM] | Kd (Rho [2]) [nM] | Kd (Rho [3]) [nM] | Kd (Rho [4]) [nM] | Kd (Rho [5]) [nM] | Kd (Rho [6]) [µM] | Kd (Rho [7]) [µM]
1 | Rho (Escherichia coli K-12; Y80C) | 43.2 ± 0.8 |  |  |  |  |  | 
2 | Nc1ncnc2c1ncn2[C@@H]1O[C@H](COP(=O)(O)OP(=O)(O)OP(=O)(O)O)[C@@H](O)[C@H]1O [ATP] |  | 2450 ± 150 | 1350 ± 260 | 600 ± 100 | 1090 ± 120 | 4.28 ± 0.54 | 3.15 ± 0.26
